For the assay, the target named is hTREM2 (Homo sapiens, UniProt Q9NZC2). Put plainly: Phospho-Syk AlphaScreen/AlphaLISA assay in TREM2 and DAP12 overexpressing HEK293 cells (Example A1). The settings on record: HEK293 cells; for EC50: read-out: hTREM2 EC50. More on the design: expressed in transfected cells. Type of assay: cell-based. The procedure, abridged:
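Agonism read as Syk phosphorylation: compounds in 1% DMSO applied 45 min at room temperature to TREM2/DAP12-HEK293 cells after 20 h culture. Lysis buffer with phosphatase inhibitors and anti-phospho-Syk plus biotinylated anti-Syk antibodies, then AlphaLISA beads (680 nm excitation); percent of control computed from antibody/isotype wells, curves fitted sigmoidally.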
On the technique in general: In Alpha technology, singlet oxygen from a donor bead excites a nearby acceptor bead.

Some results are limits rather than exact numbers.

Sequence of hTREM2 (Q9NZC2 19-230): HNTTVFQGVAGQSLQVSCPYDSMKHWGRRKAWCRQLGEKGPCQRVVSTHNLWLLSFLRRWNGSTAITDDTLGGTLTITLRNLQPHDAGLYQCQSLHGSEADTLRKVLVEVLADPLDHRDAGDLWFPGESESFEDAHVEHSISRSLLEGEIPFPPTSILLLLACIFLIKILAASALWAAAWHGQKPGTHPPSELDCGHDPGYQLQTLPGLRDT
Sequence of hTREM2 (O43914 22-113 partner): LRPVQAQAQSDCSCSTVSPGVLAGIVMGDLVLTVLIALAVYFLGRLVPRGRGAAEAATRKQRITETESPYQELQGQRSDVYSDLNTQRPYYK

Consider `Cc1nc2cc(N3CCO[C@@H](c4cnn(C)c4)C3)nc(-c3cc(F)c(F)cc3F)c2c(=O)n1C` [Example 10, 2,3-dimethyl-7-((2S)-2-(1-methyl-1H-pyrazol-4-yl)-4-morpholinyl)-5-(2,4,5-trifluorophenyl)pyrido[4,3-d]pyrimidin-4(3H)-one], for which the Emax result is recorded as “++++ (Emax>300)” and the EC50 (usually the concentration needed to bring the measured effect to its halfway point) was in the range of 50 to 500 nM.

In the case of `Cc1nc2cc(N3C[C@@H](c4cnn(C)c4)O[C@@H](C)C3)nc(-c3ccc(Cl)cc3F)c2c(=O)n1C` (single isomer, unassigned) [Example 29], the Emax entry was “+++ (Emax>200 and ≤300)”; the EC50 lay in the range of 500 to 3000 nM.

In the case of `Cc1nc2cc(N3CCOC(c4cncc(F)c4)C3)nc(-c3ccc(Cl)cc3F)c2c(=O)n1C` (centres unmarked) [Example 69, 5-(4-chloro-2-fluorophenyl)-7-(2-(5-fluoro-3-pyridinyl)-4-morpholinyl)-2,3-dimethylpyrido[4,3-d]pyrimidin-4(3H)-one], the Emax result is reported as “++++ (Emax>300)” and the EC50 was in the range of 50 to 500 nM.

On to `Cc1nc2cc(N3CCO[C@@H](c4cnn(C(F)F)c4)C3)nc(-c3ccc(Cl)cc3F)c2c(=O)n1C` [Example 253, (S)-5-(4-chloro-2-fluorophenyl)-7-(2-(1-(difluoromethyl)-1H-pyrazol-4-yl)morpholino)-2,3-dimethylpyrido[4,3-d]pyrimidin-4(3H)-one], for which the Emax entry is listed as “++++ (Emax>300)” and the EC50 was less than 50 nM.

For `Cc1nc2cc(N3CCO[C@H](c4ccsc4)C3)nc(-c3ccc(Cl)cc3F)c2c(=O)n1C` (single isomer, unassigned) [Example 54], the Emax result is on record as “++++ (Emax>300)” and the concentration giving a half-maximal response (EC50) was in the range of 50 to 500 nM.

Take `Cc1nc2cc(N3CCC[C@@H](c4ccncc4)C3)nc(-c3ccc(Cl)cc3F)c2c(=O)n1C` (single isomer, unassigned) [Example 113]: the Emax result is recorded as “++++ (Emax>300)” and the EC50 lay in the range of 50 to 500 nM.

`Cc1ccc([C@H]2C[C@@H](c3cc4nc(C)n(C)c(=O)c4c(-c4ccc(Cl)cc4F)n3)CCO2)cn1` [Example 273, 5-(4-chloro-2-fluorophenyl)-2,3-dimethyl-7-((2R,4S)-2-(6-methylpyridin-3-yl)tetrahydro-2H-pyran-4-yl)pyrido[4,3-d]pyrimidin-4(3H)-one]: the Emax result was “++++ (Emax>300)” and the concentration for a half-maximal effect (EC50) fell in the range of 50 to 500 nM.

On to `Cc1nc2cc(N3CCO[C@H](c4noc(C5CC5)n4)C3)nc(-c3ccc(Cl)cc3F)c2c(=O)n1C` (single isomer, unassigned) [Example 85], for which the Emax entry was “++++ (Emax>300)” and the EC50 is 3000 to 100000 nM.

In the case of `Cc1nc2cc(N3CCC[C@@H](N(C)C)C3)nc(-c3ccc(Cl)cc3F)c2c(=O)n1C` [Example 244, (R)-5-(4-chloro-2-fluorophenyl)-7-(3-(dimethylamino)piperidin-1-yl)-2,3-dimethylpyrido[4,3-d]pyrimidin-4(3H)-one], the Emax entry was “+++ (Emax>200 and ≤300)”; the half-maximal effective concentration (EC50) is 3000 to 100000 nM.

Regarding `Cc1cc(Cl)cnc1-c1nc(N2CCOC(c3cnn(C)c3)C2)cc2nc(C)n(C)c(=O)c12` (centres unmarked) [Example 16, 5-(5-chloro-3-methyl-2-pyridinyl)-2,3-dimethyl-7-(2-(1-methyl-1H-pyrazol-4-yl)-4-morpholinyl)pyrido[4,3-d]pyrimidin-4(3H)-one], the Emax entry was “+ (Emax>45 and ≤100)”; the 50% effective concentration (EC50) was in the range of 3000 to 100000 nM.

As to `Cc1nc2cc(N3CCO[C@H](c4cccc(Cl)c4)C3)nc(-c3ccc(Cl)cc3F)c2c(=O)n1C` [Example 239, (R)-5-(4-chloro-2-fluorophenyl)-7-(2-(3-chlorophenyl)morpholino)-2,3-dimethylpyrido[4,3-d]pyrimidin-4(3H)-one], the Emax result was “+++ (Emax>200 and ≤300)”; the EC50 lay within 3000 to 100000 nM.

For `Cc1nc2cc(N3CCc4ccnc(Cl)c4C3)nc(-c3ccc(Cl)cc3F)c2c(=O)n1C` [Example 115, 7-(8-chloro-3,4-dihydro-2,7-naphthyridin-2(1H)-yl)-5-(4-chloro-2-fluorophenyl)-2,3-dimethylpyrido[4,3-d]pyrimidin-4(3H)-one], the Emax result was “+++ (Emax>200 and ≤300)”; the EC50 is 50 to 500 nM.

Turning to `Cc1nc2cc(N3C[C@H](C)O[C@@H](c4cnn(C)c4)C3)nc(-c3ccc(Cl)cc3F)c2c(=O)n1C` (single isomer, unassigned) [Example 30], the Emax entry is “+++ (Emax>200 and ≤300)”; the EC50 fell in the range of 500 to 3000 nM.

Consider `Cc1nc2cc(N3CC[C@@H](c4cccnc4)C3)nc(-c3ccc(Cl)cc3F)c2c(=O)n1C` [Example 260, (S)-5-(4-chloro-2-fluorophenyl)-2,3-dimethyl-7-(3-(pyridin-3-yl)pyrrolidin-1-yl)pyrido[4,3-d]pyrimidin-4(3H)-one], for which the Emax entry was “++++ (Emax>300)” and the 50% effective concentration (EC50) lay within 3000 to 100000 nM.

Turning to `CCCn1c(C)nc2cc(N3CCO[C@H](c4ccccc4)C3)nc(-c3ccc(Cl)cc3F)c2c1=O` [Example 190, (R)-5-(4-chloro-2-fluorophenyl)-2-methyl-7-(2-phenylmorpholino)-3-propylpyrido[4,3-d]pyrimidin-4(3H)-one], the Emax entry is “+++ (Emax>200 and ≤300)”; the EC50 lay in the range of 500 to 3000 nM.

On to `Cc1nc2cc(N3CCO[C@H](c4cnn(C)c4)C3)nc(-c3ccc(Cl)cn3)c2c(=O)n1C` [Example 211, (R)-5-(5-chloropyridin-2-yl)-2,3-dimethyl-7-(2-(1-methyl-1H-pyrazol-4-yl)morpholino)pyrido[4,3-d]pyrimidin-4(3H)-one], for which the Emax result is “+++ (Emax>200 and ≤300)”; the concentration giving a half-maximal response (EC50) lay within 3000 to 100000 nM.

Consider `COc1ccc([C@@H]2CN(c3cc4nc(C)n(C)c(=O)c4c(-c4ccc(Cl)cc4F)n3)CCO2)cc1` [Example 237, (R)-5-(4-chloro-2-fluorophenyl)-7-(2-(4-methoxyphenyl)morpholino)-2,3-dimethylpyrido[4,3-d]pyrimidin-4(3H)-one], for which the Emax entry is “++ (Emax>100 and ≤200)”; the half-maximal effective concentration (EC50) lay within 50 to 500 nM.

Consider `CCCn1c(C)nc2cc(N3CCOC(c4cnn(C)c4)C3)nc(-c3ncc(Cl)cc3F)c2c1=O` (centres unmarked) [Example 21, 5-(5-chloro-3-fluoro-2-pyridinyl)-2-methyl-7-(2-(1-methyl-1H-pyrazol-4-yl)-4-morpholinyl)-3-propylpyrido-[4,3-d]pyrimidin-4(3H)-one], for which the Emax entry is given as “++++ (Emax>300)” and the concentration for a half-maximal effect (EC50) fell in the range of 50 to 500 nM.

Take `Cc1nc2cc(N3CCOC(C)(c4cnn(C)c4)C3)nc(-c3ccc(Cl)cc3F)c2c(=O)n1C` (centres unmarked) [Example 31, 5-(4-chloro-2-fluorophenyl)-2,3-dimethyl-7-(2-methyl-2-(1-methyl-1H-pyrazol-4-yl)-4-morpholinyl)pyrido[4,3-d]pyrimidin-4(3H)-one]: the Emax result was “++++ (Emax>300)” and the 50% effective concentration (EC50) lay within 3000 to 100000 nM.

Consider `Cc1nc2cc(N3CCO[C@@H](c4ccnc(C(F)(F)F)c4)C3)nc(-c3ccc(Cl)cc3F)c2c(=O)n1C` [Example 266, (S)-5-(4-chloro-2-fluorophenyl)-2,3-dimethyl-7-(2-(2-(trifluoromethyl)pyridin-4-yl)morpholino)pyrido[4,3-d]pyrimidin-4(3H)-one], for which the Emax result was “+++ (Emax>200 and ≤300)”; the 50% effective concentration (EC50) was less than 50 nM.

Turning to `CCn1c(C)nc2cc(N3CCO[C@@H](c4cnn(C)c4)C3)nc(-c3ccc(Cl)cc3F)c2c1=O` [Example 146, 5-(4-chloro-2-fluorophenyl)-3-ethyl-2-methyl-7-((2S)-2-(1-methyl-1H-pyrazol-4-yl)-4-morpholinyl)pyrido[4,3-d]pyrimidin-4(3H)-one], the Emax entry was “++++ (Emax>300)” and the EC50 is less than 50 nM.

Turning to `Cc1nc2cc(N3CCC[C@H](N4CCCC4)C3)nc(-c3ccc(Cl)cc3F)c2c(=O)n1C` [Example 242, (S)-5-(4-chloro-2-fluorophenyl)-2,3-dimethyl-7-(3-(pyrrolidin-1-yl)piperidin-1-yl)pyrido[4,3-d]pyrimidin-4(3H)-one], the Emax entry was “+++ (Emax>200 and ≤300)”; the 50% effective concentration (EC50) lay in the range of 3000 to 100000 nM.

Regarding `Cc1ccc([C@@H]2C[C@H](c3cc4nc(C)n(C)c(=O)c4c(-c4ccc(Cl)cc4F)n3)CCO2)cn1` [Example 274, 5-(4-chloro-2-fluorophenyl)-2,3-dimethyl-7-((2S,4R)-2-(6-methylpyridin-3-yl)tetrahydro-2H-pyran-4-yl)pyrido[4,3-d]pyrimidin-4(3H)-one], the Emax entry is on record as “++++ (Emax>300)” and the EC50 was 50 to 500 nM.

For `Cc1nc2cc(N3CCO[C@@H](c4ccc(Cl)cc4)C3)nc(-c3ccc(Cl)cc3F)c2c(=O)n1C` (single isomer, unassigned) [Example 87], the Emax entry is “++++ (Emax>300)” and the EC50 lay within 500 to 3000 nM.

For `Cc1nc2cc(N3CC[C@H](N4CCOCC4)C3)nc(-c3ccc(Cl)cc3F)c2c(=O)n1C` [Example 208, (S)-5-(4-chloro-2-fluorophenyl)-2,3-dimethyl-7-(3-morpholinopyrrolidin-1-yl)pyrido[4,3-d]pyrimidin-4(3H)-one], the Emax entry was “++ (Emax>100 and ≤200)”; the EC50 lay in the range of 3000 to 100000 nM.

On to `Cc1cc([C@H]2CN(c3cc4nc(C)n(C)c(=O)c4c(-c4ccc(Cl)cc4F)n3)CCO2)ccn1` [Example 61, 5-(4-chloro-2-fluorophenyl)-2,3-dimethyl-7-((2S)-2-(2-methyl-4-pyridinyl)-4-morpholinyl)pyrido[4,3-d]pyrimidin-4(3H)-one], for which the Emax entry was “+++ (Emax>200 and ≤300)”; the half-maximal effective concentration (EC50) was less than 50 nM.

As for `Cc1nc2cc(N3CCO[C@@H](c4ccnc(OCC(F)(F)F)c4)C3)nc(-c3ccc(Cl)cc3F)c2c(=O)n1C` (single isomer, unassigned) [Example 96], the Emax result is listed as “++++ (Emax>300)” and the EC50 lay in the range of 500 to 3000 nM.

Regarding `CCCn1c(C)nc2cc(N3CCO[C@@H](c4ccnn4C)C3)nc(-c3ccc(Cl)cc3F)c2c1=O` [Example 155, 5-(4-chloro-2-fluorophenyl)-2-methyl-7-((2R)-2-(1-methyl-1H-pyrazol-5-yl)-4-morpholinyl)-3-propylpyrido[4,3-d]pyrimidin-4(3H)-one], the Emax result is “++++ (Emax>300)” and the EC50 was in the range of 50 to 500 nM.

The values above are taken from patent US20250388574A1, “HETEROCYCLIC COMPOUNDS AS TRIGGERING RECEPTOR EXPRESSED ON MYELOID CELLS 2 AGONISTS AND METHODS OF USE” (AMGEN INC., priority 2020, published 2025).
